Entries after “also recorded” stand apart in the source; their conditions may differ.
Experiments:
[1] = system: Sprague-Dawley rat; experiment: Food maintained responding test, regulation of food intake in rats; assay type: in vivo
[2] = system: healthy, drug-free male volunteers; experiment: Cold pressor test in healthy volunteers; assay type: in vivo, human; conditions: 3-60 mg single oral dose, 1° C. water
Procedure: Analgesic effect was assessed based on duration of hand immersion in ice water and on visual analog scale (VAS) pain scores upon hand removal from the water bath.
Safety and tolerability of noribogaine were tested in the group of volunteers from Example 9. […] Safety evaluations included clinical monitoring, recording of adverse events (AEs), safety laboratory tests, vital signs, ECG telemetry from −2 h to 6 h after dosing, and 12-lead electrocardiograms (ECGs) up to 216 hours post-dosing.

[3] = system: opioid-dependent participants; experiment: Time to resumption of opioid substitution treatment and withdrawal scales (COWS, SOWS, OOWS); assay type: in vivo, human
Procedure: Three cohorts of nine (9) subjects (6 administered noribogaine and 3 administered placebo in each cohort) were evaluated for tolerability, pharmacokinetics, and efficacy. Cohort 1 received a single dose of 60 mg noribogaine or placebo. Cohort 2 received a single dose of 120 mg noribogaine or placebo. Cohort 3 received a single dose of 180 mg noribogaine or placebo.
Patients were evaluated based on the Clinical Opiate Withdrawal Scale (COWS), Subjective Opiate Withdrawal Scale (SOWS), and Objective Opiate Withdrawal Scale (OOWS) scoring systems over the period of time between administration of noribogaine (or placebo) until resumption of OST. These scales are outlined in Guidelines for the Psychosocially Assisted Pharmacological Treatment of Opioid Dependence, World Health Organization, Geneva (2009), Annex 10, which is incorporated herein by reference in its entirety. The scales measure the intensity of withdrawal symptoms, based on clinical, subjective, and objective indicia.

[4] = system: opioid-dependent participants; experiment: QT interval evaluation in opioid-dependent patients; assay type: in vivo, human; conditions: 60, 120, 180 mg, first 24 hours; correlated with serum concentration
Procedure: Patients' QT intervals were evaluated at regular time points throughout the study.

[5] = system: adult wild type short-fin zebrafish; experiment: Zebrafish novel tank test (NTT), anxiety-related endpoints; assay type: in vivo
Procedure: A total of 60 adult wild type short-fin zebrafish (˜50:50 male:female ratio) were used in this study. Fish were housed in groups of 20-30 fish per 40-L tank. Tanks were filled with filtered water and maintained at 25° C. Illumination (1000-1100 1×) was provided by ceiling-mounted fluorescent lights on a 12-h cycle (on: 6.00 h, off: 18.00 h) according to the standards of zebrafish care. All fish used in this study were experimentally naïve and fed Tetramin Tropical Flakes (Tetra USA, Blacksburg, Va.) twice a day. Following behavioral testing, the animals were euthanized in 500 mg/L Tricaine (Sigma-Aldrich, St. Louis, Mo.) buffered to pH=7.0. Animal experimentation in this study fully adhered to national and institutional guidelines and regulations.
As such, a 1 mg/L dose of noribogaine (DMX1 or Cpd) was chosen. A standard 20-min pre-treatment time was chosen based on experience with a wide range of other neuroactive compounds and the results of pilot studies. This exposure time was also sufficient for provoking physiological (e.g., cortisol and c-fos) responses of zebrafish to multiple drugs. Noribogaine exposure in this study was performed by submerging individual zebrafish in a 1-L plastic beaker for 20 min prior to the testing. The solution was regularly changed after each exposure, to ensure that each fish is exposed to a consistent concentration of noribogaine. Control fish were exposed to noribogaine-free water for the same treatment time, as described above.
Apparatus: Behavioral testing was performed between 11:00 and 15:00 h using tanks with water adjusted to the holding room temperature (25° C.). The study used the novel tank test (NTT) protocol. NTT represents one of the most commonly used neurophenotyping tests for adult zebrafish. To avoid the test battery or handling effects, each assay was performed once, on a separate individual naïve fish each time. Prior to testing, fish were pre-exposed individually in a 1-L plastic beaker for 20 min to either noribogaine-treated or noribogaine-free water. During testing, zebrafish behavior was recorded by two trained observers blind to the treatments, who manually scored different behavioral endpoints (inter- and intra-rater reliability in all experiments >0.85) with subsequent automated analysis of generated traces by Ethovision XT8.5 software (Noldus IT, Wageningen, Netherlands). The NTT, used to assess zebrafish anxiety and locomotion, was a 1.5-L trapezoidal tank (15 cm height×28 cm top×23 cm bottom×7 cm width; Aquatic Habitats, Apopka, Fla.) maximally filled with water and divided into two equal virtual horizontal portions by a line marking the outside walls. Fish were individually pre-exposed to water (water control) or noribogaine (1, 5 and 10 mg/L) for 20 min and tested in the standard 5-min NTT.
Behavioral analyses: Zebrafish behavior was recorded by trained observers, scoring the latency to reach the top half of the tank(s), time spent in top(s), number of transitions to top, as well as the number and duration(s) of freezing bouts. Freezing was defined as a total absence of movement, except for the gills and eyes, for >2 s. Trials were also recorded to a computer using a USB webcam (2.0-megapixel, Gigaware, UK) and subsequently analyzed by Ethovision XT8.5, assessing distance traveled (m), velocity (m/s), and meandering endpoints. During manual observation, videos were recorded in MPEG1 format with the maximum sample rate 30 fps for each trial by auto-focusing 2.0 MP USB webcams, placed 25 cm in front of the tanks, and attached to laptop computers. Recorded videos were analyzed with Ethovision XT8.5 software. All environments were calibrated for each arena and the calibration axes were placed to designate the origin (0,0) at the center of each tank. The track data for each fish was exported as raw data into separate spreadsheets. […]

Which results are given for `CC[C@H]1CC2C[C@H]3c4[nH]c5ccc(O)cc5c4CCN(C2)C13` [noribogaine]?
decrease in food intake ([1]; 25 mg/kg PO, P<0.05): 10%; decrease in food intake ([1]; 50 mg/kg PO, P<0.001): 25%; effect on food consumption compared to vehicle ([1]; noribogaine 12.5 mg/kg PO 2 hours prior to test): no significant effect; also recorded: no effect on food consumption; effect on food consumption compared to vehicle ([1]; noribogaine 25 mg/kg PO 2 hours prior to test, P<0.05): significantly decreased food consumption; effect on food consumption compared to vehicle ([1]; noribogaine 50 mg/kg PO 2 hours prior to test, P<0.001): significantly decreased food consumption; analgesic effect (duration of hand immersion, VAS pain scores) [2]: no analgesic effect; withdrawal symptoms (COWS, OOWS, SOWS), first six hours following dosing ([3]; 120 mg): generally experienced fewer withdrawal symptoms than the other patients; average time to resumption of opioids (OST) ([3]; single 120 mg dose): greater than 20 hours; QT interval prolongation (ΔQTcl) [4]: dose-dependent increase in QT interval prolongation; anxiolytic-like behavior ([5]; 1 mg/L): robust anxiolytic-like behavior without any overt hyperactivity/hypoactivity or circling behaviors; efficacy, pilot experiments ([5]; 1 mg/L): sub-maximal efficacy; distance moved and velocity ([5]; 1-, 5- and 10-mg/L): moderate, but non-significant, decrease; freezing bouts frequency and duration of freezing ([5]; 1-, 5- and 10-mg/L): no difference in freezing bouts frequency; movement mobility (HF hi-mobility events) ([5]; 1-, 5- and 10-mg/L): dose-related disappearance of HF hi-mobility events; transitions to upper half of the tank ([5]; 1-, 5- and 10-mg/L vs control): none of the treatment groups showed a statistically significant change; overall turning rates and patterns (meander total) ([5]; 5- and 10-mg/L): statistically significant decrease in overall turning rates and patterns (meander); swimming motor activity, pilot experiments ([5]; 5- and 10-mg/L): caused reduction in selected swimming motor activity levels; number of top transitions ([5]; 5 and 10 mg/L (control 10)): ~7; EC50 ([5]; Danio rerio, 20 min, water immersion 20 min, read-out: half-efficacy on indices of anxiety levels (time in top, latency in top)): < 1 µg/mL; time spent in top portion of the tank ([5]; each of 1-, 5- and 10-mg/L): statistically significant increase in the duration of time spent in the defined top portion of the tank; latency to the upper half of the tank ([5]; each of 1-, 5- and 10-mg/L, 20 min immersion, 5-min NTT): statistically significant decrease in latency to the upper half of the tank; turning/rotation rate ([5]; significant at the 10 mg/L dose): decrease in turning/rotation rate

Reference: patent publication US20160038505A1, “METHODS AND COMPOSITIONS FOR TREATING IMPULSE CONTROL DISORDER, ANXIETY-RELATED DISORDERS, VIOLENCE AND/OR ANGER, OR REGULATING FOOD INTAKE” (priority 2014, published 2016)
